Where “and” joins values, the source holds several entries; their conditions need not be identical. Equal entries are not always repeated.
Assay: Physical characterization of CAGE at 25° C.
Assay type: physicochemical
Experimental: Physical characterization at 25° C. was in good agreement with published values and was as follows: density, 0.989±0.001 g mL^−1; and conductivity, 0.0427±0.0005 mS cm^−1.
Physicochemical properties were identical to those previously published confirming purity (Zakrewsky et al., PNAS, 2014, 111, 13313; incorporated by reference herein in its entirety, and for the disclosure referenced herein). CAGE has unique properties based upon the 1:1:1 ratio of cation:anion:protonated acid. This is important since it gives rise to the low conductivity determined for CAGE (0.043 mS cm^−1) and is a potential indicator of anti-biofilm efficacy but, also provides insight to minimized skin irritation potential.

Substance: choline geranate [CAGE]
- conductivity: 0.0427±0.0005 mS cm^−1 and 0.043 mS cm^−1
- density: 0.989 ± 0.001 g/mL

Reference: US11344652B2, “Ionic liquids that sterilize and prevent biofilm formation in skin wound healing devices” (The Arizona Board of Regents on Behalf of Northern Arizona …, priority 2016, dated 2022)
